Measured values as given in patent US10442804B2, “Compounds for the treatment of hepatitis B virus infection” (Gilead Sciences, Inc., priority 2017, dated 2019).
Where two headings read alike, the source gives them in different places. One block for each compound: values may come before it.

How the values were obtained:
[1] = system: Human iPSC derived iCell GABAergic Neurons; experiment: Human iPSC neurite outgrowth assay; format: cell-based
Method: Biological Example 4: Toxicology Study
Human iPSC Neurite Outgrowth Assay
Human induced pluripotent stem cell (iPSC) derived iCell GABAergic Neurons (Cellular Dynamics Inc.) were seeded at a density of 67,500 cells per square centimeter into 384 well plates. The neurons were plated for 1 hour in attachment media before exchange for serum-free growth media (Cellular Dynamics Inc.). The serum-free growth media was exchanged for fresh media and the plated neurons were treated with test compounds and control compounds at 6 concentrations (1 nM-100 μM) at 4 and 24 hour timepoints in triplicate wells. Optimum neuron cell attachment to the plates was obtained at the 24 hour timepoint. Vincristine was utilized as the positive control for toxic inhibition of neurite outgrowth and 0.1% DMSO treatment was used for control treatment of neurons. Celltracker and DRAQ7 stains were applied prior to fixation of cells to assess nuclear and cell viability. Cells were then fixed for 20 minutes in 4% formaldehyde in PBS containing Hoechst dye and then fixative was replaced with PBS twice. High content imaging was performed with 9 fields of 20× magnification on a CX7 HCS system with an algorithm to enable quantification of neurite lengths and neurite branch points in all treatment groups. The results of the counts and measurements were then analyzed by the strictly standardized mean difference (SSMD) method of analysis to measure effect size for any decreases in mean neurite total length per cell (microns) or changes in mean branch point counts per cell (PhenoVista Biosciences, San Diego). FIG. 1 depicting plots of mean branch point counts per cell as a function of concentration for Vincristine, RG783/R07020322, and Compound 73 (free base, purified without addition of TFA). […]

[2] = system: HBV-infected NTCP-HepG2 cells, secreted HBsAg; experiment: microbe, parasite or virus in culture; format: cell-based, hepatitis B virus (genotype D, AD38-derived); conditions: Hepatitis B virus, 120 h, secreted HBsAg in supernatant after 5 days; geometric mean of minimum four determinations; read-out: NTCP HBsAg EC50
In short: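 NTCP-HepG2 cells were infected with genotype D HBV at 4000 genome equivalents/cell, then seeded 4 days post-infection with serially diluted compounds (1% DMSO) for 5 days. Supernatant HBsAg was measured by chemiluminescent MSD immunoassay. EC50 from four-parameter fit, geometric mean of ≥4 determinations.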

MT-4 cytotoxicity assay = format: cell-based, human; conditions: human
[3] = five days, Cell Titer Glo luminescence, read-out: MT-4 CC50

neurite total length and branch point counts [1]: significant decreases | Decreased Neurite Length SSMD Values ([1]; human, 4 h, 10 μM): −3.8 | Branch Point Count SSMD Values ([1]; human, 4 h, 100 μM): −5.2 | Decreased Neurite Length SSMD Values ([1]; human, 4 h, 100 μM): −4.0 | Branch Point Count SSMD Values ([1]; human, 24 h, 1 μM): −3.3 | Decreased Neurite Length SSMD Values ([1]; human, 24 h, 1 μM): −3.4 | Branch Point Count SSMD Values ([1]; human, 24 h, 10 μM): −3.4 | Decreased Neurite Length SSMD Values ([1]; human, 24 h, 10 μM): −5.9 | Branch Point Count SSMD Values ([1]; human, 24 h, 100 μM): −5.0 | Decreased Neurite Length SSMD Values ([1]; human, 24 h, 100 μM): −4.5
SMILES: COCCCOc1cc2c(cc1OC)-c1cc(=O)c(C(=O)O)cn1[C@H](C(C)C)C2 [RG7834/R07020322]

SMILES: COCCCOc1cc2c(cc1COC)-c1cc(=O)c(C(=O)O)cn1N1[C@@H]2CCC1(C)C [Example 73, (R)-11-(methoxymethyl)-12-(3-methoxypropoxy)-3,3-dimethyl-8-oxo-2,3,8,13b-tetrahydro-1H-pyrido[2,1-a]pyrrolo[1,2-c]phthalazine-7-carboxylic acid]
neurite total length and branch point counts [1]: No significant effects | EC50 [2]: 1.9 nM | CC50 at 5 days (MT-4 cytotoxicity assay; [3]): > 10 µM

neurite total length and branch point counts ([1]; 4 and 24 hour treatments, vs 0.1% DMSO treated neurons, SSMD analysis): significant decreases | Decreased Neurite Length SSMD Values ([1]; 4 hr, 1 μM, vs 0.1% DMSO): −7.3 | Branch Point Count SSMD Values ([1]; 4 hr, 10 μM, vs 0.1% DMSO): −3.0 | Decreased Neurite Length SSMD Values ([1]; 4 hr, 10 μM, vs 0.1% DMSO): −5.7 | Branch Point Count SSMD Values ([1]; 4 hr, 100 μM, vs 0.1% DMSO): −3.5 | Decreased Neurite Length SSMD Values ([1]; 4 hr, 100 μM, vs 0.1% DMSO): −10 | Branch Point Count SSMD Values ([1]; 24 hr, 1 μM, vs 0.1% DMSO): −3.1 | Decreased Neurite Length SSMD Values ([1]; 24 hr, 1 μM, vs 0.1% DMSO): −4.9 | Branch Point Count SSMD Values ([1]; 24 hr, 10 μM, vs 0.1% DMSO): −3.6 | Decreased Neurite Length SSMD Values ([1]; 24 hr, 10 μM, vs 0.1% DMSO): −5.4 | Branch Point Count SSMD Values ([1]; 24 hr, 100 μM, vs 0.1% DMSO): −6.0 | Decreased Neurite Length SSMD Values ([1]; 24 hr, 100 μM, vs 0.1% DMSO): −6.6
SMILES: CC[C@]1(O)C[C@H]2CN(CCc3c([nH]c4ccccc34)[C@@](C(=O)OC)(c3cc4c(cc3OC)N(C=O)[C@H]3[C@@](O)(C(=O)OC)[C@H](OC(C)=O)[C@]5(CC)C=CCN6CC[C@]43[C@@H]65)C2)C1 [Vincristine]
Branch Point Count SSMD Values ([1]; 4 hr, 0.001 μM, vs 0.1% DMSO): NS (NS = no significant effect and >−3 SSMD Values.) | Decreased Neurite Length SSMD Values ([1]; 4 hr, 0.001 μM, vs 0.1% DMSO): NS (NS = no significant effect and >−3 SSMD Value.) | Branch Point Count SSMD Values ([1]; 4 hr, 0.01 μM, vs 0.1% DMSO): NS (NS = no significant effect and >−3 SSMD Values.) | Decreased Neurite Length SSMD Values ([1]; 4 hr, 0.01 μM, vs 0.1% DMSO): NS (NS = no significant effect and >−3 SSMD Value.) | Branch Point Count SSMD Values ([1]; 4 hr, 0.1 μM, vs 0.1% DMSO): NS (NS = no significant effect and >−3 SSMD Values.) | Decreased Neurite Length SSMD Values ([1]; 4 hr, 0.1 μM, vs 0.1% DMSO): NS (NS = no significant effect and >−3 SSMD Value.) | Branch Point Count SSMD Values ([1]; 4 hr, 1 μM, vs 0.1% DMSO): NS (NS = no significant effect and >−3 SSMD Values.) | Branch Point Count SSMD Values ([1]; 24 hr, 0.001 μM, vs 0.1% DMSO): NS (NS = no significant effect and >−3 SSMD Values.) | Decreased Neurite Length SSMD Values ([1]; 24 hr, 0.001 μM, vs 0.1% DMSO): NS (NS = no significant effect and >−3 SSMD Value.) | Branch Point Count SSMD Values ([1]; 24 hr, 0.01 μM, vs 0.1% DMSO): NS (NS = no significant effect and >−3 SSMD Values.) | Decreased Neurite Length SSMD Values ([1]; 24 hr, 0.01 μM, vs 0.1% DMSO): NS (NS = no significant effect and >−3 SSMD Value.) | Branch Point Count SSMD Values ([1]; 24 hr, 0.1 μM, vs 0.1% DMSO): NS (NS = no significant effect and >−3 SSMD Values.) | Decreased Neurite Length SSMD Values ([1]; 24 hr, 0.1 μM, vs 0.1% DMSO): NS (NS = no significant effect and >−3 SSMD Value.) | neuron counts or neuron viability ([1]; any of the tested concentrations (1 nM-100 μM), vs 0.1% DMSO control, SSMD analysis): No significant changes of effect

SMILES: COC(C)(C)C#Cc1cc2c(cc1Cl)-c1cc(=O)c(C(=O)O)cn1N1[C@@H]2CCC12CC2 [Example 85, (R)-11′-chloro-12′-(3-methoxy-3-methylbut-1-yn-1-yl)-8′-oxo-1′,2′,8′,13b′-tetrahydrospiro[cyclopropane-1,3′-pyrido[2,1-a]pyrrolo[1,2-c]phthalazine]-7′-carboxylic acid]
EC50 [2]: 4.1 nM | CC50 at 5 days (MT-4 cytotoxicity assay; MT-4 CC50): > 10 µM

SMILES: COCCOCc1cc2c(cc1OC(F)F)-c1cc(=O)c(C(=O)O)cn1N1[C@@H]2CCC1(C)C [Compound 108, (R)-11-(difluoromethoxy)-12-((2-methoxyethoxy)methyl)-3,3-dimethyl-8-oxo-2,3,8,13b-tetrahydro-1H-pyrido[2,1-a]pyrrolo[1,2-c]phthalazine-7-carboxylic acid]
EC50 [2]: 16.8 nM | CC50 at 5 days (MT-4 cytotoxicity assay; [3]): > 10 µM

SMILES: COCCCOc1cc2c(cc1Cl)-c1cc(=O)c(C(=O)O)cn1N1CCCC21 (centres unmarked) [Example 1, 11-chloro-12-(3-methoxypropoxy)-8-oxo-2,3,8,13b-tetrahydro-1H-pyrido[2,1-a]pyrrolo[1,2-c]phthalazine-7-carboxylic acid]
EC50 [2]: 90 nM | CC50 at 5 days (MT-4 cytotoxicity assay; [3]): 8 µM

SMILES: COCCCOc1cc2c(cc1OC)-c1cc(=O)c(C(=O)O)cn1N1[C@@H]2CCCC1(C)C (single isomer, unassigned) [Example 52]
EC50 [2]: 0.91 nM | CC50 at 5 days (MT-4 cytotoxicity assay; [3]): > 10 µM

SMILES: COc1cc2c(cc1OCCCOC(F)(F)F)[C@H]1CCC(C)(C)N1n1cc(C(=O)O)c(=O)cc1-2 [Example 58, (R)-11-methoxy-3,3-dimethyl-8-oxo-12-(3-(trifluoromethoxy)propoxy)-2,3,8,13b-tetrahydro-1H-pyrido[2,1-a]pyrrolo[1,2-c]phthalazine-7-carboxylic acid]
EC50 [2]: 4.8 nM | CC50 at 5 days (MT-4 cytotoxicity assay; [3]): 9.3 µM

SMILES: CCc1cc2c(cc1OCCCOC)[C@H]1CCC(C)(C)N1n1cc(C(=O)O)c(=O)cc1-2 [Example 63, (R)-11-Ethyl-12-(3-methoxypropoxy)-3,3-dimethyl-8-oxo-2,3,8,13b-tetrahydro-1H-pyrido[2,1-a]pyrrolo[1,2-c]phthalazine-7-carboxylic acid]
EC50 [2]: 0.34 nM | CC50 at 5 days (MT-4 cytotoxicity assay; [3]): > 10 µM

SMILES: CCOCCCOc1cc2c(cc1OC)-c1cc(=O)c(C(=O)O)cn1N1[C@@H]2CCC1(C)C [Example 62, (R)-12-(3-ethoxypropoxy)-11-methoxy-3,3-dimethyl-8-oxo-2,3,8,13b-tetrahydro-1H-pyrido[2,1-a]pyrrolo[1,2-c]phthalazine-7-carboxylic acid]
EC50 [2]: 0.67 nM | CC50 at 5 days (MT-4 cytotoxicity assay; [3]): > 10 µM

SMILES: COCCCOc1cc2c(cc1Cl)-c1cc(=O)c(C(=O)O)cn1N1[C@H](C)CC[C@@H]21 (single isomer, unassigned) [Example 9]
EC50 [2]: 45 nM | CC50 at 5 days (MT-4 cytotoxicity assay; [3]): > 10 µM

SMILES: COC(C)(C)C#Cc1cc2c(cc1OC(F)F)-c1cc(=O)c(C(=O)O)cn1N1[C@@H]2CCC1(C)C [Example 103, (R)-11-(difluoromethoxy)-12-(3-methoxy-3-methylbut-1-yn-1-yl)-3,3-dimethyl-8-oxo-2,3,8,13b-tetrahydro-1H-pyrido[2,1-a]pyrrolo[1,2-c]phthalazine-7-carboxylic acid]
EC50 [2]: 0.82 nM | CC50 at 5 days (MT-4 cytotoxicity assay; [3]): > 10 µM

SMILES: COc1cc2c(cc1OCCCOC(C)(C)C)[C@H]1CCC(C)(C)N1n1cc(C(=O)O)c(=O)cc1-2 [Example 65, (R)-12-(3-(tert-butoxy)propoxy)-11-methoxy-3,3-dimethyl-8-oxo-2,3,8,13b-tetrahydro-1H-pyrido[2,1-a]pyrrolo[1,2-c]phthalazine-7-carboxylic acid]
EC50 [2]: 0.41 nM | CC50 at 5 days (MT-4 cytotoxicity assay; [3]): > 10 µM
